Results on 2 compounds are retold here after paper PMC10082777, “Pyrazole-sulfonamide scaffold featuring dual-tail strategy as apoptosis inducers in colon cancer” (Scientific Reports, 2023).

Broadly, the IC50 is the midpoint of a concentration-inhibition curve.

This test concerns the target T1, Carbonic Anhydrase IX (CA IX) (Homo sapiens, UniProt Q16790).
T1 construct: gene CA9; AA 1-459, GST tag
In words: CA inhibitor screening kit (BioVision K473-100), recombinant CA IX, absorbance at […] nm, kinetic mode. The test is classed as biochemical.

In the case of `Nc1cc(Nc2ccc(S(=O)(=O)Nc3ccccn3)cc2)n(-c2ccccc2)n1` [compound 3, 4-((3-Amino-1-phenyl-1H-pyrazol-5-yl)amino)-N-(pyridin-2-yl) benzenesulfonamide], the IC50 was found to be 0.336 µM. The result for `Nc1nn(-c2ccccc2)c(-c2ccccc2)c1C(=O)Nc1ccc(S(=O)(=O)Nc2ccccn2)cc1` [compound 11, 3-Amino-1,5-diphenyl-N-(4-(N-(pyridin-2-yl)sulfamoyl)phenyl)-1H-pyrazole-4-carboxamide] reads 0.128 µM.
